How the values were obtained:
[1] = mn = molality of the nth substance listed, in mol/kg; conditions: 101 kPa, Liquid; for apparent molar heat capacity: Flow calorimetry
[2] = Crystal; visual observation

CC(=O)N[C@@H](CCCCN)C(N)=O.Cl [(S)-2-acetamido-6-aminohexanamide hydrochloride] + O
[1]
Conditions	apparent molar heat capacity [J/K/mol]	mass density [kg/m3]
288.15 K, m1 = 0.02301	333.4	1000.28
288.15 K, m1 = 0.02858	336.3	1000.57
288.15 K, m1 = 0.0372	339.9	1001.01
288.15 K, m1 = 0.04378	339.8	1001.34
288.15 K, m1 = 0.05396	339.8	1001.86
288.15 K, m1 = 0.06411	343.1	1002.37
288.15 K, m1 = 0.07273	342	1002.8
288.15 K, m1 = 0.08089	341.3	1003.21
288.15 K, m1 = 0.08886	340.4	1003.6
288.15 K, m1 = 0.0972	343.1	1004.02
298.15 K, m1 = 0.02795	377.8	998.439
298.15 K, m1 = 0.03712	377.9	998.893
298.15 K, m1 = 0.04507	379.4	999.283
298.15 K, m1 = 0.05411	379.1	999.729
298.15 K, m1 = 0.06514	378.6	1000.27
298.15 K, m1 = 0.07363	379	1000.68
298.15 K, m1 = 0.08347	378.8	1001.16
298.15 K, m1 = 0.08995	379	1001.47
313.15 K, m1 = 0.02397	404.5	993.394
313.15 K, m1 = 0.03035	411.1	993.703
313.15 K, m1 = 0.03705	406.4	994.027
313.15 K, m1 = 0.04583	409.4	994.449
313.15 K, m1 = 0.05213	–	994.754
313.15 K, m1 = 0.05469	404	–
313.15 K, m1 = 0.05752	–	995.015
313.15 K, m1 = 0.06361	405.8	995.306
313.15 K, m1 = 0.06804	408	995.516
313.15 K, m1 = 0.07802	406.1	995.99
328.15 K, m1 = 0.02685	429	986.984
328.15 K, m1 = 0.03581	428	987.412
328.15 K, m1 = 0.04352	428.9	987.778
328.15 K, m1 = 0.05273	429.2	988.207
328.15 K, m1 = 0.06308	431.9	988.699
328.15 K, m1 = 0.07041	431.9	989.042
328.15 K, m1 = 0.08088	432.4	989.527
328.15 K, m1 = 0.0877	433.2	989.846

CC(=O)N[C@@H](CCC(N)=O)C(N)=O [(S)-2-acetamidopentanediamide]
Conditions	Normal melting temperature [°C]
[2]	192.4

CC(=O)N[C@@H](CCC(N)=O)C(N)=O [(S)-2-acetamidopentanediamide] + O
[1]
Conditions	apparent molar heat capacity [J/K/mol]	mass density [kg/m3]
288.15 K, m1 = 0.03981	353.8	1000.96
288.15 K, m1 = 0.04349	350.3	1001.13
288.15 K, m1 = 0.0507	353.7	1001.46
288.15 K, m1 = 0.05943	355.1	1001.86
288.15 K, m1 = 0.06967	356.4	1002.33
288.15 K, m1 = 0.07857	350.8	1002.75
288.15 K, m1 = 0.08453	356.6	1003.03
288.15 K, m1 = 0.09265	354.1	1003.38
288.15 K, m1 = 0.1008	353.9	1003.78
298.15 K, m1 = 0.04537	377.9	999.104
298.15 K, m1 = 0.05783	383.7	999.659
298.15 K, m1 = 0.06765	378	1000.1
298.15 K, m1 = 0.08263	379.9	1000.77
298.15 K, m1 = 0.09722	382.3	1001.41
298.15 K, m1 = 0.1055	382.8	1001.79
298.15 K, m1 = 0.1217	379.5	1002.51
298.15 K, m1 = 0.133	381.1	1003.01
298.15 K, m1 = 0.1455	382.4	1003.56
313.15 K, m1 = 0.03917	407.2	–
313.15 K, m1 = 0.04565	409.1	994.219
313.15 K, m1 = 0.05555	410.8	994.65
313.15 K, m1 = 0.06371	410.7	995.007
313.15 K, m1 = 0.07398	410.7	995.463
313.15 K, m1 = 0.08191	408.9	995.809
313.15 K, m1 = 0.08959	408.6	996.143
313.15 K, m1 = 0.1002	409	996.596
328.15 K, m1 = 0.03787	430.2	987.321
328.15 K, m1 = 0.04577	430	987.659
328.15 K, m1 = 0.05585	431.2	988.092
328.15 K, m1 = 0.0626	431.6	988.383
328.15 K, m1 = 0.07189	432.4	988.783
328.15 K, m1 = 0.08069	430.4	989.147
328.15 K, m1 = 0.0903	429.9	989.565
328.15 K, m1 = 0.1056	–	990.212

CC(=O)N[C@@H](CC(N)=O)C(N)=O [(S)-2-acetamidosuccinamide]
Conditions	Normal melting temperature [°C]
[2]	244

CC(=O)N[C@@H](CCCCN)C(N)=O.Cl [(S)-2-acetamido-6-aminohexanamide hydrochloride]
Conditions	Normal melting temperature [°C]
[2]	144.4

CC(=O)NC(=O)[C@@H](N)Cc1ccc(O)cc1 [N-Acetyl-L-tyrosinamide] + O
[1]
Conditions	apparent molar heat capacity [J/K/mol]	mass density [kg/m3]
288.15 K, m1 = 0.01175	508.1	999.692
288.15 K, m1 = 0.012	504.2	999.707
288.15 K, m1 = 0.01302	504.9	999.758
288.15 K, m1 = 0.01344	509	999.773
288.15 K, m1 = 0.01395	505.4	999.805
288.15 K, m1 = 0.01495	502.3	999.855
288.15 K, m1 = 0.01591	501.9	999.904
288.15 K, m1 = 0.01705	500.4	999.955
288.15 K, m1 = 0.0179	501.6	1000
288.15 K, m1 = 0.01902	503.4	1000.05
288.15 K, m1 = 0.01984	502.6	1000.1
298.15 K, m1 = 0.01196	517	997.637
298.15 K, m1 = 0.013	517.7	997.684
298.15 K, m1 = 0.01383	515.6	997.725
298.15 K, m1 = 0.01493	517	997.781
298.15 K, m1 = 0.01497	–	997.785
298.15 K, m1 = 0.01592	516.9	997.83
298.15 K, m1 = 0.017	–	997.885
298.15 K, m1 = 0.01809	519.4	997.94
298.15 K, m1 = 0.01905	–	997.984
298.15 K, m1 = 0.02018	511.5	998.035
313.15 K, m1 = 0.01197	542.3	992.782
313.15 K, m1 = 0.01299	543.8	992.827
313.15 K, m1 = 0.01401	543	992.874
313.15 K, m1 = 0.01501	545.3	992.925
313.15 K, m1 = 0.01596	546.3	992.967
313.15 K, m1 = 0.01693	541.4	993.013
313.15 K, m1 = 0.01787	543.5	993.057
313.15 K, m1 = 0.01892	542.6	993.101
328.15 K, m1 = 0.01201	553.5	986.242
328.15 K, m1 = 0.01295	552.2	986.289
328.15 K, m1 = 0.01394	549.9	986.33
328.15 K, m1 = 0.0149	556.4	986.378
328.15 K, m1 = 0.0159	554.4	986.421
328.15 K, m1 = 0.01694	552	986.462
328.15 K, m1 = 0.01796	555.6	986.514
328.15 K, m1 = 0.0189	555.1	986.548

CC(=O)NC(=O)[C@@H](N)Cc1ccc(O)cc1 [N-Acetyl-L-tyrosinamide]
Conditions	Normal melting temperature [°C]
[2]	225

Source: the NIST ThermoML archive (doi:10.1016/j.jct.2006.03.015)
